How the values were obtained:
[1] = Water adsorption and desorption test; type: physicochemical; settings: for hygroscopicity: conclusion of the water adsorption and desorption test; for hygroscopicity / moisture absorption under relative humidity 95%: without pre-drying
Method: Water adsorption and desorption test was performed using a water equilibrium measuring apparatus (SGA-100, manufactured by VTI).
A water adsorption and desorption test was performed by the following method.
Method 1 (without Pre-Drying):
Form I crystal (about 10 mg) was weighed in a quartz cell, and a weight change ratio was measured when it reached equilibrium at 25° C. and each relative humidity, by using a water equilibrium measuring apparatus (SGA-100, manufactured by VTI).
Test temperature: 25° C. Equilibrating conditions: weight change ratio was not more than 0.03% in 5 min Maximum equilibrating time: 180 min Change of relative humidity: increased from 5% to 95% at 5% intervals, and decreased from 95% to 5% at 5% intervals. Method 2 (with Pre-Drying):
Form I crystal (about 10 mg) was weighed in a quartz cell, dried under a dried nitrogen stream at 60° C., and a weight change ratio was measured when it reached equilibrium at 25° C. and each relative humidity, by using a water equilibrium measuring apparatus (SGA-100, manufactured by VTI).
Test temperature: 25° C. Equilibrating conditions: weight change ratio was not more than 0.03% in 5 min Maximum equilibrating time: 180 min Change of relative humidity: increased from 5% to 95% at 5% intervals, and decreased from 95% to 5% at 5% intervals.
In the water adsorption and desorption test, the measurement was performed under two conditions of “with pre-drying (drying before test)” and “without pre-drying (drying before test)”, wherein humidification and drying were repeated once. […] Therefore, it was assumed that pre-drying completely evaporated crystal water.

[2] = Water adsorption and desorption test; type: physicochemical; settings: for weight decrease on pre-drying: pre-dried under a dried nitrogen stream, 60° C.; for weight increase by humidification after drying: with pre-drying, humidification up to relative humidity 10%, 25° C.
[3] = target: T1, human PDHK1 (hPDHK1) (Homo sapiens, UniProt Q15118); experiment: Inhibitory action of PDHK1 activity in vitro (residual PDH activity after kinase reaction); type: biochemical; settings: PDH/hPDHK1 complex, PDHK reaction 45 min at room temperature
T1 construct: made in house; host or cells: Escherichia coli BL21(DE3), pET17b vector
Method: (§1) The inhibitory action of PDHK activity was assessed indirectly by measuring the residual PDH activity after kinase reaction in the presence of a test compound.
In the case of human PDHK1 (hPDHK1, Genbank Accession No. L42450.1), a 1.3 kbp fragment encoding this protein was isolated from human liver cDNA by polymerase chain reaction (PCR). Modified hPDHK1 cDNA wherein FLAG-Tag sequence was added to the N terminus was prepared by PCR and cloned into a vector (pET17b-Novagen). The recombinant construct was transformed into Escherichia coli (DH5α-TOYOB0). The recombinant clones were identified, and plasmid DNA was isolated and subjected to the DNA sequence analysis. One clone which had the expected nucleic acid sequence was selected for expression work. […]
Then, 10 μL of substrates (5 mmol/L sodium pyruvate, 5 mmol/L Coenzyme A, 12 mmol/L NAD, 5 mmol/L thiamin pyrophosphate, diluted with buffer) were added. The mixture was incubated at room temperature for 90 min, and the residual PDH activity was measured.
The absorbance at 340 nm before and after PDH reaction was measured using a microplate reader to detect NADH produced by the PDH reaction. The hPDHK1 inhibition rate (%) of the test compound was calculated from the formula [{(PDH activity of the test compound−PDH activity of control)/PDH activity of blank−PDH activity of control)}×100]. […]

[4] = target: T2, human PDHK2 (hPDHK2) (Homo sapiens, UniProt Q15119); experiment: Inhibitory action of PDHK2 activity in vitro (residual PDH activity after kinase reaction); type: biochemical; settings: PDH/hPDHK2 complex, PDHK reaction 45 min at room temperature
T2 construct: made in house; host or cells: Escherichia coli BL21(DE3), pET17b vector
Method: as §1
The recombinant construct was transformed into Escherichia coli (DB5α-TOYOBO). The recombinant clones were identified, and plasmid DNA was isolated and subjected to the DNA sequence analysis. One clone which had the expected nucleic acid sequence was selected for expression work.
For expression of hPDHK2 activity, Escherichia coli strain BL21(DE3) cells (Novagen) were transformed with the pET17b vector containing modified hPDHK2 cDNA. The Escherichia coli were grown to an optical density 0.6 ([…]) at 30° C. Protein expression was induced by the addition of 500 μmol/L isopropyl-β-thiogalactopyranoside. […]
0.05 U/mL PDH and 0.8 μg/mL hPDHK2 were mixed in a buffer (50 mmol/L 3-morpholinopropanesulfonic acid (pH 7.0), 20 mmol/L dipotassium hydrogen phosphate, 60 mmol/L potassium chloride, 2 mmol/L magnesium chloride, 0.4 mmol/L EDTA, and 0.2% Pluronic F-68, 2 mmol/L dithiothreitol), and the mixture was incubated at 4° C. overnight to obtain a PDH/hPDHK2 complex. […] The mixture was incubated at room temperature for 90 min, and the residual PDH activity was measured. The absorbance at 340 nm before and after PDH reaction was measured using a microplate reader to detect NADH produced by the PDH reaction. […]

T1 sequence (Q15118 29-436): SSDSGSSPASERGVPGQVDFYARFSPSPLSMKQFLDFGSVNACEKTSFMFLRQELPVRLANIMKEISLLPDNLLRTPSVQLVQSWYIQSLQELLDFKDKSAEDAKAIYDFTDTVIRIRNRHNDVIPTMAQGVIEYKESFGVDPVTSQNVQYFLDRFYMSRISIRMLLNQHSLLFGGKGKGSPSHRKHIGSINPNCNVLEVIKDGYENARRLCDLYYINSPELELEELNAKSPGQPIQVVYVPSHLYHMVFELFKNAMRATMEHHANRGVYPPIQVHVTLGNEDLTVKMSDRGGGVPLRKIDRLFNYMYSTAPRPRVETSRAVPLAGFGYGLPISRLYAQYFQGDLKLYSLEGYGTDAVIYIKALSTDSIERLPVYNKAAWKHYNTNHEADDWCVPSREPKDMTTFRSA

| SMILES | hygroscopicity [1] | moisture absorption under relative humidity 95% ([1]; 25° C.) | weight decrease on pre-drying [2] | weight increase by humidification after drying [2] | IC50 [3] | IC50 [4] | weight decrease on pre-drying ([1]; pre-dried under a dried nitrogen stream, 60° C.) | weight increase by humidification after drying ([1]; with pre-drying, humidification up to relative humidity 50%, 25° C.) |
| --- | --- | --- | --- | --- | --- | --- | --- | --- |
| CC(CO)(CO)n1cc(-c2cc(F)cc3c2-c2ccccc2[C@]3(O)C(F)(F)F)cn1 [Form V crystal of compound (Ah), 0.5 hydrate of 2-{4-[(9R)-2-fluoro-9-hydroxy-9-(trifluoromethyl)-9H-fluoren-4-yl]-pyrazol-1-yl}-2-methyl-propane-1,3-diol] | does not have hygroscopicity | remarkable moisture absorption was not found | 2.36% | 2.46% | – | – | – | – |
| CC(CO)(CO)n1cc(-c2cc(F)cc3c2-c2ccccc2[C@]3(O)C(F)(F)F)cn1 [Form I crystal of compound (Ah), 0.5 hydrate of 2-{4-[(9R)-2-fluoro-9-hydroxy-9-(trifluoromethyl)-9H-fluoren-4-yl]-pyrazol-1-yl}-2-methyl-propane-1,3-diol] | does not have hygroscopicity | remarkable moisture absorption was not found | 2.15% | 2.44% | 26 nM | 14 nM | – | – |
| Cc1cc(-c2cnn(C(CO)(CO)CO)c2)c2c(c1)[C@@](O)(C(F)(F)F)c1ccccc1-2 [Form IVb crystal of compound (Bh), 2 hydrate of 2-hydroxymethyl-2-{4-[(9R)-9-hydroxy-2-methyl-9-(trifluoromethyl)-9H-fluoren-4-yl]-pyrazol-1-yl}-propane-1,3-diol] | does not have hygroscopicity | remarkable moisture absorption was not found | – | – | – | 20 nM | 7.75% | 7.93% |
